These compounds were tested against SARS-CoV-2 3CLpro (Severe acute respiratory syndrome coronavirus 2 (2019-nCoV) (SARS-CoV-2), UniProt P0DTD1).
Format: biochemical

Row | Structure (SMILES) | IC50 | SARS-CoV-2 IC50 (nM)
1 | O=C(Cc1cncc2ccccc12)N(Cc1cc(F)cc(Cl)c1)c1ccc(-c2c[nH]cn2)cn1 [Compound 29] | 40 nM | –
2 | O=C(Cc1cnccc1Cl)N(Cc1cc(F)cc(Cl)c1)c1ccc(-c2c[nH]cn2)cc1 [Compound 76] | 311 nM | –
3 | O=C(Cc1cccnc1)N(Cc1cc(F)cc(Cl)c1)c1ccc(-c2c[nH]cn2)cc1 [Compound 43] | 188 nM | –
4 | Cc1cncc(CC(=O)N(Cc2cc(F)cc(Cl)c2)c2ccc(C3CNC3)cc2)c1 [Compound 80] | 110 nM | –
5 | Cc1cncc(CC(=O)N(Cc2cc(F)cc(Cl)c2)c2ccc(-c3c[nH]cn3)cc2)c1 [Compound 70] | 84 nM | –
6 | O=C(Cc1cncc2ccccc12)N(Cc1ccc(Cl)c(F)c1)c1ccc(-c2c[nH]cn2)cc1 [Compound 58] | 1090 nM | –
7 | O=C(Cc1nnc2ccccn12)N(Cc1cc(F)ccc1F)c1ccc(-c2c[nH]cn2)cc1 [Compound 22] | 786 nM | –
8 | O=C(Cc1nncc2ccccc12)N(Cc1cc(F)cc(Cl)c1)c1ccc(C2CNC2)cc1 [Compound 82, N-(4-(azetidin-3-yl)phenyl)-N-(3-chloro-5-fluorobenzyl)-2-(phthalazin-1-yl)acetamide] | 70 nM | –
9 | Cc1ccc2nnc(CC(=O)N(Cc3cc(F)cc(Cl)c3)c3ccc(-c4c[nH]cn4)cc3)n2n1 [Compound 42] | 250 nM | –
10 | O=C1Nc2ccccc2C1CC(=O)N(Cc1cc(F)cc(Cl)c1)c1ccc(-c2c[nH]cn2)cc1 (stereo not shown) [Compound 59] | 6240 nM | –
11 | O=C(Cc1cncc2ccccc12)N(Cc1cc(Cl)ccc1F)c1ccc(-c2c[nH]cn2)cc1 [Compound 15] | 308 nM | –
12 | O=C(Cc1cncc2ccccc12)N(Cc1cccc(Cl)c1)c1ccc(-c2cn[nH]c2)cc1 [Compound 2, N-[(3-chlorophenyl)methyl]-2-(4-isoquinolyl)-N-[4-(1H-pyrazol-4-yl)phenyl]acetamide] | 30 nM | –
13 | O=C(Cc1cncc2ccccc12)N(Cc1cncc(F)c1)c1ccc(-c2c[nH]cn2)cc1 [Compound 40] | 53 nM | –
14 | O=C(Cc1nnc(-c2ccccc2)o1)N(Cc1cccc(Cl)c1)c1ccc(-c2cn[nH]c2)cc1 [Compound 7, N-[(3-chlorophenyl)methyl]-2-(5-phenyl-1,3,4-oxadiazol-2-yl)-N-[4-(1H-pyrazol-4-yl)phenyl]acetamide] | – | Inactive
15 | CC(c1cc(F)cc(F)c1)N(C(=O)Cc1cncc2ccccc12)c1ccc(-c2c[nH]cn2)cc1 (stereo not shown) [Compound 30] | 114 nM | –
16 | O=C1NC(CC(=O)N(Cc2cc(F)cc(Cl)c2)c2ccc(-c3c[nH]cn3)cc2)c2ccccc21 (stereo not shown) [Compound 50] | 30800 nM | –
17 | O=C(Cc1nncc2ccccc12)N(Cc1cc(F)cc(Cl)c1)c1ccc(-c2c[nH]cn2)cc1 [Compound 73] | 61 nM | –
18 | O=C(Cc1cnccc1C(F)(F)F)N(Cc1cc(F)cc(Cl)c1)c1ccc(-c2c[nH]cn2)cc1 [Compound 75] | 1000 nM | –
19 | O=C(Cc1cnccn1)N(Cc1cc(F)cc(Cl)c1)c1ccc(-c2c[nH]cn2)cc1 [Compound 55] | 2040 nM | –
20 | O=C(Cc1cnccn1)N(Cc1cccc(Cl)c1)c1ccc(-c2cn[nH]c2)cc1 [Compound 5, N-[(3-chlorophenyl)methyl]-2-pyrazin-2-yl-N-[4-(1H-pyrazol-4-yl)phenyl]acetamide] | 5220 nM | –
21 | O=C(Cc1cncc2ccccc12)N(Cc1cncc(Cl)c1)c1ccc(-c2c[nH]cn2)cc1 [Compound 17] | 101 nM | –
22 | O=C(Cc1cncnc1)N(Cc1cc(F)cc(Cl)c1)c1ccc(-c2c[nH]cn2)cc1 [Compound 48] | 542 nM | –

Row | Structure (SMILES) | IC50 | SARS-CoV-2 IC50 (nM)
23 | COc1ccc(F)cc1CN(C(=O)Cc1cncc2ccccc12)c1ccc(-c2c[nH]cn2)cc1 [Compound 53] | 179 nM | –
24 | C[C@H](c1cc(F)cc(Cl)c1)N(C(=O)Cc1nnc2ccccn12)c1ccc(-c2c[nH]cn2)cc1 [Compound 13] | 587 nM | –
25 | O=C(Cc1cncc2ccccc12)N(Cc1cc(F)cc(OC(F)(F)F)c1)c1ccc(-c2c[nH]cn2)cc1 [Compound 61] | 113 nM | –
26 | COc1ccncc1CC(=O)N(Cc1cc(F)cc(Cl)c1)c1ccc(-c2c[nH]cn2)cc1 [Compound 78] | 222 nM | –
27 | O=C(Cc1cncc2ccccc12)N(Cc1cc(F)cc(Cl)c1)c1ccc(C2=CCNC2)cc1 [Compound 57] | 81 nM | –
28 | O=C(Cc1nnc2ccc(F)cn12)N(Cc1cccc(Cl)c1)c1ccc(-c2cn[nH]c2)cc1 [Compound 3, N-[(3-chlorophenyl)methyl]-2-(6-fluoro-[1,2,4]triazolo[4,3-a]pyridin-3-yl)-N-[4-(1H-pyrazol-4-yl)phenyl]acetamide] | 3360 nM | –
29 | O=C(Cc1cccnn1)N(Cc1cccc(Cl)c1)c1ccc(-c2cn[nH]c2)cc1 [Compound 6, N-[(3-chlorophenyl)methyl]-N-[4-(1H-pyrazol-4-yl)phenyl]-2-pyridazin-3-yl-acetamide] | 5000 nM | –
30 | O=C(Cc1cnc2ccccn12)N(Cc1cc(F)cc(Cl)c1)c1ccc(-c2c[nH]cn2)cc1 [Compound 11, N-[(3-chloro-5-fluoro-phenyl)methyl]-2-imidazo[1,2-a]pyridin-3-yl-N-[4-(1H-imidazol-4-yl)phenyl]acetamide] | 65 nM | –
31 | Cc1ccc2nnc(CC(=O)N(Cc3cc(F)cc(F)c3)c3ccc(-c4c[nH]cn4)cc3)n2n1 [Compound 41] | 604 nM | –
32 | O=C(Cc1cncc2ccccc12)N(Cc1cc(F)cc(Cl)c1)c1ccc(C2CNC2)cc1 [Compound 72] | 56 nM | –
33 | O=C(Cc1nnc2ccccn12)N(Cc1cccc(Cl)c1)c1ccc(-c2cn[nH]c2)cc1 [Compound 1, N-[(3-chlorophenyl)methyl]-N-[4-(1H-pyrazol-4-yl)phenyl]-2-([1,2,4]triazolo[4,3-a]pyridin-3-yl)acetamide] | 365 nM | –
34 | O=C(Cc1cnc2ccccn12)N(Cc1cccc(Cl)c1)c1ccc(-c2cn[nH]c2)cc1 [Compound 4, N-[(3-chlorophenyl)methyl]-2-imidazo[1,2-a]pyridin-3-yl-N-[4-(1H-pyrazol-4-yl)phenyl]acetamide] | 1150 nM | –
35 | COc1cc(Cl)cc(CN(C(=O)Cc2cncc3ccccc23)c2ccc(-c3c[nH]cn3)cc2)c1 [Compound 19] | 100 nM | –
36 | NCc1ccc(N(Cc2cc(F)cc(F)c2)C(=O)Cc2cncc3ccccc23)cc1 [Compound 74] | 76 nM | –
37 | Cc1cncc(CC(=O)N(Cc2cc(F)cc(F)c2)c2ccc(-c3c[nH]cn3)cc2)c1 [Compound 66] | 103 nM | –
38 | CC(C)(C)NC(=O)C(c1cc(F)cc(F)c1)N(C(=O)Cc1cncc2ccccc12)c1ccc(C2=CCNC2)cc1 (stereo not shown) [Compound 63] | 1030 nM | –
39 | O=C(Cc1cncc2ccccc12)N(Cc1cccc(F)c1)c1ccc(-c2c[nH]cn2)cc1 [Compound 26] | 351 nM | –
40 | O=C(Cc1nnc(-c2ccccc2)s1)N(Cc1cccc(Cl)c1)c1ccc(-c2cn[nH]c2)cc1 [Compound 8, N-[(3-chlorophenyl)methyl]-2-(5-phenyl-1,3,4-thiadiazol-2-yl)-N-[4-(1H-pyrazol-4-yl)phenyl]acetamide] | – | Inactive
41 | O=C(Cc1noc2ccccc12)N(Cc1cc(F)cc(Cl)c1)c1ccc(-c2c[nH]cn2)cc1 [Compound 49] | 839 nM | –
42 | O=C(Cc1nnc2ccccn12)N(Cc1cc(F)cc(Cl)c1)c1ccc(-c2c[nH]cn2)cc1 [Compound 9, N-[(3-chloro-5-fluoro-phenyl)methyl]-N-[4-(1H-imidazol-4-yl)phenyl]-2-([1,2,4]triazolo[4,3-a]pyridin-3-yl)acetamide] | 71 nM | –
43 | O=C(Cc1cncc(F)c1)N(Cc1cncc(F)c1)c1ccc(-c2c[nH]cn2)cc1 [Compound 81] | 1310 nM | –
